In patent publication US9089576B2, “Medicament comprising a peptide extract of avocado, which is intended for the treatment and prevention of illnesses that are linked to an immune system deficiency or oxidative stress or skin ageing or dry skin” (LABORATOIRES EXPANSCIENCE, priority 2004, dated 2015):
Values joined by “and” are separate entries in the source; they are usually repeats but may differ in a detail not shown here. Equal values may be shown once. Read-outs that look alike come from different tables or passages of the source. Marks after values point to notes of the source that are not given here.

Key:
[1] = system: S100 A9; test: DNA array gene expression, Skinethic reconstructed epidermises: S100 A9; type: cell-based; details: 1 μM retinoic acid
[2] = system: S100 A7; test: DNA array gene expression, Skinethic reconstructed epidermises: S100 A7; type: cell-based; details: 1 μM retinoic acid
[3] = system: Heme oxygenase 1; test: DNA array gene expression, Skinethic reconstructed epidermises: Heme oxygenase 1; type: cell-based; details: 1 μM retinoic acid
[4] = system: S100 A8; test: DNA array gene expression, Skinethic reconstructed epidermises: S100 A8; type: cell-based; details: 1 μM retinoic acid
[5] = system: NICE-1 protein; test: DNA array gene expression, Skinethic reconstructed epidermises: NICE-1; type: cell-based; details: 1 μM retinoic acid
[6] = system: Thioredoxin; details: 1 μM retinoic acid
Experimental: The gene expression analysis conducted using standard simplified DNA arrays. These mini-chips were produced on a Nylon substrate, spotting specific cDNA of the markers of interest.
The analysis was conducted using proprietary optimised miniaturised technology, based on the use of messenger RNA and ^33P labelling:
At the end of each culture time, the epidermises were rinsed with a PBS solution. The total RNA in the epidermises was then extracted and purified using Tri-Reagent [Sigma] according to a standardised protocol. The quantity and quality of the RNA were then evaluated using an Agilent 2001 bioanalyser.
The mRNA from each culture was then reverse transcribed using oligodT and a deoxyribonucleotide triphosphate labelled with ^33P. Multiple cDNA ‘target’ labelled sequences were produced for each culture. These targets were then hybridised, under optimised conditions, with the excess ‘probe’ cDNA fixed on the membranes. After washing, the relative quantity of labelled target was detected by means of direct counting on PhosphorImager.
The membrane analysis was conducted using ImageQuant TL software [Image Analysis, Amersham Biosciences].

[7] = system: Desmosglein 1; test: DNA array gene expression, Skinethic reconstructed epidermises: Desmosglein 1; type: cell-based; details: 1 μM retinoic acid
[8] = system: Lysyl oxidase like 2 (LOXL2); test: DNA array gene expression, Skinethic reconstructed epidermises: LOXL2; type: cell-based; details: 1 μM retinoic acid
[9] = system: Elafin; test: DNA array gene expression, Skinethic reconstructed epidermises: Elafin; type: cell-based; details: 1 μM retinoic acid
[10] = system: Normal human epidermal keratinocytes (NHEK); test: NHEK proliferation (neutral red incorporation); type: cell-based; details: 1 μM retinoic acid; 48 hours
Experimental: (§1) The cell proliferation was evaluated using a neutral red incorporation tests. This test is based on the ability of living cells to incorporate and fix neutral red, a supravital staining agent. Therefore, the staining activity intensity (optical density measurement of cell lysates) reflects the quantity of living cells.
(§2) Normal human epidermal keratinocytes (NHEK), supplied by Cambrex, were cultured in KGM2 culture medium [Cambrex]. Normal human dermal fibroblasts (NHDF), supplied by Cambrex, were cultured in RPMI 1640 medium with GlutaMAX I [Invitrogen] supplemented with 1% or 10% fetal calf serum [FCS, Invitrogen].
(§3) The cells were inoculated in 96-well plates in KGM2 medium for the NHEK and in RPMI medium with 1% FCS for the NHDF.
(§4) (positive reference) in KGM2 medium for the NHEK or in RPMI medium with 1% FCS for the NHDF.
(§5) At the end of treatment, the quantity of cells per well was evaluated by means of a neutral red incorporation test:
(§6) After 3 hours in contact with neutral red, the cells were rinsed and lysed and the optical density proportional to the quantity of living cells was read at 540 nm against the blank (well with no cells).

[11] = system: hyaluronic acid; test: Hyaluronic acid synthesis/release by keratinocytes (ELISA); type: cell-based, human; details: 0.1 μM retinoic acid, 72 hours
Experimental: (§7) Normal human epidermal keratinocytes (NHEK) were pre-cultured for 24 hours at 37° C., 5% CO2 in calcium-depleted (0.09 mM) SFM medium [Invitrogen] supplemented with 0.25 ng/ml EGF [Invitrogen], 25 μg/ml pituitary extract [Invitrogen] and 25 μg/ml gentamycin [Sigma].
(§8) Two identical runs were prepared to assay, on one hand, hyaluronic acid release/production and, on the other, […] incorporation in the GAG fraction. The group corresponding to the GAG assay was supplemented with ^35S-sulphate [Amersham] after 48 hours of culture (labelling for the last 24 hours).
In the group corresponding to the hyaluronic acid assay, at the end of treatment, the culture supernatants were sampled and the hyaluronic acid assayed using a specific modified ELISA test [Biogenic].
(§9) The between-group comparisons were conducted by means of an analysis of variance using the Dunnett multiple comparison test.

[12] = system: Normal human dermal fibroblasts (NHDF); test: NHDF proliferation (neutral red incorporation); type: cell-based; details: 1 μM retinoic acid; 48 hours; RPMI 1% FCS
Experimental: as §1, §2, §3, §4
An additional condition was conducted for the NHDF: treatment with complete medium (RPMI with 10% FCS: optimal conditions for NHDF proliferation).
as §5, §6

[13] = system: Glycosaminoglycan (GAG) synthesis; test: GAG synthesis by keratinocytes (35S-sulphate incorporation); type: cell-based, human; details: 72 hours
Experimental: as §7, §8
At the end of the treatment, in the group corresponding to the GAG assay, the incorporated radioactivity was counted and thus the variation in GAG synthesis with respect to the analysed control.
as §9

[14] = system: SPRL6A (epidermal differentiation complex protein like protein); test: DNA array gene expression, Skinethic reconstructed epidermises: SPRL6A; type: cell-based; details: 1 μM retinoic acid
[15] = system: oxidised proteins; test: Oxidised proteins content in replication-aged fibroblast model (INCell Analyzer analysis); type: cell-based, human; details: P16 fibroblasts; 150 μM BHA; 72 hours
Experimental: The study was conducted on normal human dermal fibroblasts at passage 8 (P8, control conditions) and brought to senescence using two separate methods: • accelerated ageing by means of successive replications: fibroblasts at passage 16 (P16), • accelerated ageing by means of H2O2.
The fibroblasts were cultured in DMEM medium [Invitrogen] supplemented with 2 mM L-glutamine [Invitrogen] and 10% Fetal Calf Serum [FCS, Invitrogen].
After incubation, the cells were rinsed and fixed with methanol. The fluorescein-5-thiosemicarbazide probe (20 μM) [Invitrogen] was added for 30 minutes at ambient temperature and, in parallel, the cell nuclei were stained with Hoechst [Sigma]. The image acquisition was performed using the INCell Analyzer™ 1000 unit [GE Healthcare], with the ×20 lens.

[16] = system: Jurkat cell line (human lymphoid cells); test: Anti-radical activity: intracellular lipid peroxides after H2O2 (C11-fluorine probe, flow cytometry); type: cell-based; details: 100 μM BHA; 10 μM H2O2, 30 minutes
Experimental: The relative lipid peroxide content inside the cells was measured in the basal state and following hydrogen peroxide treatment (H2O2, radical species production stimulation).
This measurement was made using a specific fluorescent probe selected and quantified by means of flow cytometry. This technique offers the advantage of very high specificity by measuring the fluorescence of individual cells, on a large number of cells (10,000 cells analysed per sample).
The cells were prepared in phenol red-free DMEM medium [Merck] with 1.87 mg/ml sodium bicarbonate [Invitrogen] according to the following conditions: • cells treated with H2O2 with the C11-fluorine probe (to quantify lipid peroxides); • cells not treated with H2O2 with C11-fluorine probe.
The probe was incorporated in the cells and the cells were then washed and incubated in the presence or not (standard) of 0.05%, 0.1%, 0.2% and 1% DM avocado peptides or 100 μM BHA (Butylated hydroxyanisole) [Sigma] […]
In the presence of hydrogen peroxide, the C11-fluorine probe integrated in the membranes is oxidised and its fluorescence decreases. Therefore, a decrease in the fluorescence signal conveys an increase in the membrane lipid peroxide content (and conversely).
The between-group comparisons were conducted using the Student's test and the protection percentage (P) was calculated as follows:

[17] = system: Collagen I; test: Gene expression of Collagen I in fibroblasts (real-time RT-PCR); type: cell-based, human; details: 24 hours
Experimental: (§10) The cells were then incubated at 37° C., 5% CO2 for 24 hours for the collagen I and elastin study or 48 hours for the LOX and LOXL study.

[18] = system: MMP1; test: Gene expression of MMP1 in PMA-stimulated fibroblasts (real-time RT-PCR); type: cell-based, human; details: 1 mg/ml TGF b1 pre-treatment 16 hours, then 10 nM PMA 2 hours
Experimental: After 16 hours of incubation, the fibroblasts were stimulated for 2 hours with 10 nM PMA (Phorbol Myristate Acetate) [Sigma] in RPMI medium without FCS.
For the study of the expression of MMP1, the inhibition percentage was calculated as follows: […]

[19] = system: Elastin; test: Gene expression of Elastin in fibroblasts (real-time RT-PCR); type: cell-based, human; details: 24 hours
Experimental: as §10

[20] = system: hBD-2; test: Induction of hBD-2 in normal human keratinocytes (ELISA); type: cell-based; details: IL-1β 100 ng/ml, 24 hours
Experimental: Normal human keratinocytes are seeded in 96 well plates (about 20,000 cells/well), in the presence of a specific medium which is enriched in calcium (final concentration 1.3 mM), as formerly described in the publication “Human β-Defensin-2 production in Keratinocytes is regulated by Interleukin-1, Bacteria, and the State of Differentiation”, Alice Y. Liu et al., The Society for Investigative Dermatology, vol. 118, No 2, February 2002, pages 275-281.
After 24 hours incubation, the induction of hBD-2 is assessed with an ELISA technique using a specific antibody (goat polyclonal to human BD2; Abcam; ab9871).

[21] = system: Rat peritoneal mast cells; test: Tryptase release by mast cells stimulated with calcium ionophore A23187; type: cell-based; details: Ca ionophore + 50 μM Quercetin
Experimental: (reference tryptase release inhibitory molecule).
The cells were then stimulated for 15 minutes by 0.5 μM calcium ionophore A23187 [Millipore] to induce the release of tryptase.
The reaction was stopped by means of centrifugation at 4° C. The tryptase was assayed in the pellets and in the supernatants by means of a commercial kit [Millipore] based on the spectrophotometric detection of the chromophore p-nitroaniline (pNA) after cleavage of the substrate tosyl-gly-pro-lys-pNA by tryptase.

CC1=C(/C=C/C(C)=C/C=C/C(C)=C/C(=O)O)C(C)(C)CCC1 [retinoic acid]
% variation with respect to reference: S100 A9 ([1]; 6 hours): +83%
% variation with respect to reference: S100 A9 ([1]; 24 hours): +552%
% variation with respect to reference: S100 A7 ([2]; 6 hours): +118%
% variation with respect to reference: S100 A7 ([2]; 24 hours): +3240%
% variation with respect to reference: Heme oxygenase 1 ([3]; 6 hours): −17%
% variation with respect to reference: Heme oxygenase 1 ([3]; 24 hours): +108%
% variation with respect to reference: S100 A8 ([4]; 6 hours): +34%
% variation with respect to reference: S100 A8 ([4]; 24 hours): +1347%
% variation with respect to reference: NICE-1 protein ([5]; 6 hours): −3%
% variation with respect to reference: NICE-1 protein ([5]; 24 hours): +217%
% variation with respect to reference: Thioredoxin ([6]; 6 hours): −26%
% variation with respect to reference: Thioredoxin ([6]; 24 hours): +126%
% variation with respect to reference: Desmosglein 1 ([7]; 6 hours): −40%
% variation with respect to reference: Desmosglein 1 ([7]; 24 hours): −95%
% variation with respect to reference: Lysyl oxidase like 2 (LOXL2) ([8]; 6 hours): −16%
% variation with respect to reference: Lysyl oxidase like 2 (LOXL2) ([8]; 24 hours): −16%
% variation with respect to reference: Elafin ([9]; 6 hours): +13%
% variation with respect to reference: Elafin ([9]; 24 hours): −22%
NHEK proliferation, % vs control cells [10]: +36%
NHEK proliferation, Neutral Red (OD 540) [10]: 0.6981 ± 0.1627 OD 540
Hyaluronic acid synthesis/release, % vs control cells [11]: +146%
Hyaluronic acid synthesis/release, HA ([11]; culture supernatant): 11500 ± 457 ng/mL
NHDF proliferation, % vs control cells [12]: +20%
NHDF proliferation, Neutral Red (OD 540) [12]: 0.1923 ± 0.00765 OD 540
GAG synthesis, 35-5 sulphate incorporation (cpm) ([13]; 0.1 μM retinoic acid): 13217 ± 421 cpm
% variation with respect to reference: SPRL6A ([14]; 6 hours): −41%
% variation with respect to reference: SPRL6A ([14]; 24 hours): +202%

COc1ccc(O)c(C(C)(C)C)c1 [BHA, Butylated hydroxyanisole]
Oxidised proteins (cytoplasmic fluorescence intensity/number of cells) [15]: 105 314*
Oxidised proteins, % vs “senescent cells” (P16) [15]: −57%
Protection % [16]: 50%
Relative intracellular quantity of lipid peroxides, % of “oxidised cell” standard [16]: 89** %

TGF b1: TGFβ1 [R&D Systems], positive control / reference
Gene expression of Collagen I, Relative quantity standardised with HPRT ([17]; 5 mg/ml TGF b1): 1.74*
increase in gene expression of type I collagen ([17]; TGFβ1 positive control): 74%
Gene expression of MMP1, Inhibition (% vs stimulated cells) [18]: −66 $$ %
Gene expression of MMP1, Relative quantity standardised with YWHA2 [18]: 0.61
Gene expression of MMP1, Inhibition (% vs stimulated cells) ([18]; listed as TGFβ1): −66%
Gene expression of Elastin, Relative quantity standardised with HPRT ([19]; 5 mg/ml TGF b1): 1.59
increase in gene expression of elastin ([19]; TGFβ1 positive control): 59%

[Ca+2] [Calcium, calcium]
GAG synthesis, 35-5 sulphate incorporation (cpm) ([13]; 1.5 mM calcium): 17753 ± 876 cpm
GAG synthesis, % vs control cells ([13]; 1.5 mM calcium): +59%

IL-1β: interleukin-1β, positive induction checking for hBD-2
hBD-2 (OD), Average [20]: 0.106 OD
hBD-2 (OD) ([20]; single replicates): 0.103 OD and 0.11 OD and 0.105 OD

O=c1c(O)c(-c2ccc(O)c(O)c2)oc2cc(O)cc(O)c12 [Quercetin]
Tryptase [21]: 44 ± 2 mg/mL
tryptase release, Inhibition (% vs stimulated cells) [21]: −47%
